From patent publication US11999964B2, “Synthetic mammalian signaling circuits for robust cell population control” (California Institute of Technology, priority 2020, dated 2024)
pEC50: −log10 of the molar value.

Experiments:
Type in all cases: cell-based, Hamster
Paradaux cells = assay: Paradaux cell survival versus auxin with AP1903 and/or blasticidin, and model parameter fitting
From the text: FIGS. 4A-4G depict non-limiting exemplary embodiments and data showing paradoxical architecture reduces susceptibility to cheater mutations. (FIG. 4A) In the paradoxical architecture, the same signal inhibits growth (red pathway) and death (green pathway). This can produce a window of auxin concentrations leading to positive net growth (light blue region). Without mutation, the paradoxical and negative feedback circuits operate similarly around a stable equilibrium point of large population size (solid dots in the left panels). Mutations that eliminate sensing make both death and growth independent of auxin concentration (right panels), which selects against mutations in the paradoxical circuit due to negative net growth (FIG. 4B) In the paradoxical circuit implementation, auxin regulates growth through Blast^R (upper path), and also regulates apoptosis via iCasp9 (lower path), each with distinct fluorescent protein readouts and a small molecule (blasticidin and AP1903) as a control switch. (FIG. 4C) The full paradoxical circuit can be encoded as a single open reading frame, with distinct proteins separated by T2A peptides (grey squares). (FIG. 4D) Paradaux cells respond to auxin in a biphasic manner. Cells were seeded at about 1/8 confluence (grey dashed line) and pretreated with NAA for one day, then treated with combinations of NAA, blasticidin (20 μg/ml) and AP1903 (50 nM) for another 3 days, and imaged. Pink, green, and blue dots show the mean and standard deviation of three replicates in the presence of AP1903, blasticidin, or both, respectively. […] Blue dashed lines indicate predictions for the fully operational circuit based on the green and red curves. Dotted blue line is the model prediction when the synergy term is included. (FIG. 4E) Different classes of behavior can occur in different parameter regimes. Using the model auxin-dependent growth was simulated in different parameter regimes and identified five distinct regimes (indicated schematically as insets). Using this classification, growth curves were numerically analyzed and sorted for each concentration of blasticidin and AP1903 (central plot). The blue dot indicates the blasticidin and AP1903 concentrations used in the time-lapse movie analysis. The grey region indicates curves that could not be classified into one of these categories (0.68% of total, see FIG. 9F and Supplementary text). (FIG. 4F). For each expression level, the percent of blasticidin-AP1903 concentrations that generate paradoxical behavior was analyzed, similar to FIG. 4E. Optimizing the expression and ratio of Blast R and iCasp9 can widen the paradoxical regime. (FIG. 4G) Dynamic simulations show the Paradoxical Control circuit provides evolutionary robustness. For the negative feedback system, tic and βC and βsyn are set to zero. Mutated strains were simulated with auxin (A) fixed to zero, representing sensing deficient mutations. On day 25, 50, 75 and 100, mutant cells (1% of the population cap) were introduced into the simulated system to test robustness to mutations. These mutants take over in the negative feedback circuit (top) but not the paradoxical circuit (bottom). Dashed line indicates carrying capacity.
To encode the Paradaux circuit, a single multi-protein construct expressing osTIR1, the auxin-regulated iCasp9 system, and the auxin-regulated Blast R construct described above was designed (FIG. 4C). To eliminate one potential mechanism for evolutionary escape, Blast^R was positioned at the C-terminal end of the construct, so that premature stop codon mutations would deactivate Blast®, decreasing survival. The construct was integrated to create stable monoclonal CHO-K1 cell lines for further analysis. […]

mCherry-AID-Blast R [1] = molecular target: T1, mCherry-AID-Blast R (UniProt P93830+Q7XVM8, DEL133-229); assay: Conditioned media from Sender-Receivers applied to Receivers; conditions: 2 days conditioning, diluted into an equal volume of fresh media
T1 construct: expressed in transfected cells; 'Receiver' line
Protocol: FIGS. 2A-2E depict non-limiting exemplary embodiments and data showing Sender-Receiver cells produce and respond to auxin. […] (FIG. 2B) Stable expression of iaaH in Receiver cells allows them to produce auxin from precursors (blue square). (FIG. 2C) Conditioned media experiment (schematic). Fresh culture media with or without precursors was added to plated sender cells, collected, mixed at 1:1 ratio with standard fresh media, and then applied to receiver cells. (FIG. 2D) iaaH can produce IAA and NAA auxins from IAM and NAM precursors, respectively. Standard media, with or without precursors, was conditioned by Sender-Receivers or standard CHO-K1 cells for 48 hours and applied to Receiver cells for another two days. Receivers cultured with fresh media with or without auxins were also assayed as controls. Data are normalized to Receiver cell fluorescence treated with media conditioned by CHO-K1 cells. Error bars represent standard deviation of 3 replicates. (FIG. 2E) Auxin senders can generate an auxin gradient. Sender-Receivers (green) were seeded within a 7 mm×7 mm square at the edge of a 60 mm dish, and Receivers were plated everywhere else (no fluorescence or red). One day after plating, the media was replaced with fresh media containing low-melting-point agarose, with or without IAM (Methods). Plates were imaged after two additional days of culture. […]

Sender-Receiver cells = assay: Quorum sensing of Sender-Receiver cells (reporter fluorescence versus population density); conditions: Sender-Receiver cells without PIN2, two days
Protocol: FIGS. 3A-3D depict non-limiting exemplary embodiments and data showing Sender-Receiver cells sense their population density and regulate survival accordingly. (FIGS. 3A-3B) Sender-Receiver and Sender-Receiver-PIN2 cells perform quorum sensing. For both plots, cells were seeded at different densities and induction conditions, with either of the two auxins (saturating signaling) or their precursors (to allow quorum sensing). mCherry fluorescence was assayed after two days as a reporter of auxin sensing. Inset: Cells in B express the transporter PIN2, which actively exports auxin. Data were fitted onto an inverted Michaelis-Menten's function on log scale (see FIG. 7B for fitted parameters). (FIG. 3C) Sender-Receiver-PIN2 cells sense population size per unit volume. Cells were grown for two days at 6 different densities for each media volume, and cultured on a rocker for better mixing. (FIG. 3D) Sender-Receiver-PIN2 triggers cell death at high population density. […]
It was next asked whether Sender-Receiver cells could sense their own population density by producing auxin at a rate proportional to population size and sensing auxin concentration in the local environment (quorum sensing, FIG. 1A, middle panel). The dependence of reporter expression on cell population density in the presence of concentrations of each precursor sufficient to generate saturating levels of auxin was analyzed. […]

mCherry-AID-Blast R [2] = molecular target: T1, mCherry-AID-Blast R; assay: Auxin regulation of mCherry-AID-BlastR fluorescence in Receiver cells; conditions: Receiver CHO-K1 cells, two days of treatment, Michaelis-Menten fit; read-out: EC50, reduction of mCherry fluorescence
From the text: FIGS. 1A-1D depict non-limiting exemplary embodiments and data showing the plant hormone auxin allows private-channel mammalian cell-cell communication. […] Middle: Engineered cells that can send and receive the signal simultaneously can respond to their own population size. Right: coupling the sending-receiving function with cell survival in a negative feedback can enable population control. (FIG. 1B) Auxin Receiver cells constitutively express a fluorescent target fusion protein, mCherry-AID-BlastR, as well as the F-box protein osTIR1. […] The response of mCherry fluorescence to two different species of auxin (IAA and NAA) was measured after two days of treatment (dots). […] Cells were counted by flow cytometry (n=3, error bar=standard deviation). […]
To establish and characterize auxin regulation of mammalian cell growth, auxin sensing was coupled to drug resistance and fluorescence. Specifically, blasticidin S deaminase (Blast R), whose protein product is necessary for survival in the presence of blasticidin, was fused to AID and mCherry domains, allowing auxin-dependent degradation and fluorescent readout of protein concentration, respectively. […]
To fit the mCherry's response curve to auxin and population (FIG. 1C, FIGS. 3A and 3B; FIGS. 7A and 7B), it was assumed the log of fluorescence (F) follows an inverted Michaelis-Menten's equation as follow: […]

Sender-Receiver-PIN2 = assay: Density-dependent survival of Sender-Receiver-PIN2 cells in blasticidin; conditions: media with blasticidin, 4 days
Protocol: FIGS. 3A-3D depict non-limiting exemplary embodiments and data showing Sender-Receiver cells sense their population density and regulate survival accordingly. (FIGS. 3A-3B) Sender-Receiver and Sender-Receiver-PIN2 cells perform quorum sensing. For both plots, cells were seeded at different densities and induction conditions, with either of the two auxins (saturating signaling) or their precursors (to allow quorum sensing). mCherry fluorescence was assayed after two days as a reporter of auxin sensing. Inset: Cells in B express the transporter PIN2, which actively exports auxin. Data were fitted onto an inverted Michaelis-Menten's function on log scale (see FIG. 7B for fitted parameters). (FIG. 3C) Sender-Receiver-PIN2 cells sense population size per unit volume. Cells were grown for two days at 6 different densities for each media volume, and cultured on a rocker for better mixing. (FIG. 3D) Sender-Receiver-PIN2 triggers cell death at high population density. Cells were seeded at different confluence levels, grown for four days in media with 50 μg/ml blasticidin and IAM, IAA, or no auxin (Error bars are standard deviation, n=3)).
Linking quorum sensing to cell survival could enable cell population control (FIG. 1A, right). […]

[3] = fitted value, major Paradaux line (1)
[4] = fitted value, second Paradaux line (2)

T1 sequence (P93830 65-132 limits assumed, stated change not applied): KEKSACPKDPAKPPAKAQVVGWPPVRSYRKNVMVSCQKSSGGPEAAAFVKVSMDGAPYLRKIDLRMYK
T1 sequence (Q7XVM8 whole entry, stated change not applied): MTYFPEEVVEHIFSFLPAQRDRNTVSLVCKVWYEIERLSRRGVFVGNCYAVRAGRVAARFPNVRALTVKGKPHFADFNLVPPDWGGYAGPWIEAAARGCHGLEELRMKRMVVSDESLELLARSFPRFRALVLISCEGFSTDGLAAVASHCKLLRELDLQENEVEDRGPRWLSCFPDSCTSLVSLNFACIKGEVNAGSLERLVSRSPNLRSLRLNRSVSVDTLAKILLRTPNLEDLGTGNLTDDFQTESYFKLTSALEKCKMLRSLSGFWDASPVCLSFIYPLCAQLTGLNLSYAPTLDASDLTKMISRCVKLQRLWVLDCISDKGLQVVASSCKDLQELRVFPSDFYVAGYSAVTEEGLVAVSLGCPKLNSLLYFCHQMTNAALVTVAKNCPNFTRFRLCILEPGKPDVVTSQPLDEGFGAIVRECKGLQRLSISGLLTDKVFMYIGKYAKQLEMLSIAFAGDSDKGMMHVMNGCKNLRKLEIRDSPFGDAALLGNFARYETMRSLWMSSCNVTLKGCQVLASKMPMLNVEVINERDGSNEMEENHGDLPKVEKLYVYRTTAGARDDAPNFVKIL
T1 sequence (Q9WTX5 whole entry partner): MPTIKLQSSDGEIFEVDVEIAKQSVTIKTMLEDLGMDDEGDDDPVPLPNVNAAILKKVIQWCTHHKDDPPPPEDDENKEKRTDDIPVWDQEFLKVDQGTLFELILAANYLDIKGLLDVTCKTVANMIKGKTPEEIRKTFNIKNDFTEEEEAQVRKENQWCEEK

CN(CC[C@H](N)CC(=O)N[C@H]1C=C[C@H](n2ccc(N)nc2=O)O[C@@H]1C(=O)O)C(=N)N [blasticidin]
n1, cooperativity of the blasticidin regulation (Paradaux cells; [3]): 2.26(1); DL | βB, maximum net growth reduction by blasticidin (Paradaux cells; [3]): 0.0874(1); hr^−1 | κB, effective strength of blasticidin (Paradaux cells; [3]): 0.045(1); (μg/ml)^−1 | n1, cooperativity of the blasticidin regulation (Paradaux cells; [4]): 2.28(2) DL | βB, maximum net growth reduction by blasticidin (Paradaux cells; [4]): 0.147(2) hr^−1 | κB, effective strength of blasticidin (Paradaux cells; [4]): 0.069(2) (μg/ml)^−1

NC(=O)Cc1cccc2ccccc12 [NAM, 1-naphthaleneacetamide]
Reduction of mCherry-AID-BlastR in Receivers by media conditioned by Sender-Receivers with precursor (mCherry-AID-Blast R [1]): diminished response compared to NAA | Reporter fluorescence versus population density with precursor (Sender-Receiver cells): decreased in response to increasing population density

O=C(O)Cc1cccc2ccccc12 [NAA, 1-napthalenatic acid]
pEC50 (mCherry-AID-Blast R [2]): 6.12

NC(=O)Cc1c[nH]c2ccccc12 [IAM, indole-3-acetamide]
Reduction of mCherry-AID-BlastR in Receivers by media conditioned by Sender-Receivers with precursor (mCherry-AID-Blast R [1]): comparable to those generated by saturating concentrations of IAA | Reporter fluorescence versus population density with precursor (Sender-Receiver cells): strong, but density-independent, decrease in fluorescence | Cell numbers at high seeding density versus no IAM or IAA (Sender-Receiver-PIN2): reduced cell numbers

auxin
Survival of Paradaux cells as a function of auxin (Paradaux cells; both blasticidin and AP1903): biphasic survival curve | κA, effective strength of auxin (Paradaux cells; fitted value): 1.316 µM⁻¹ | Survival of Paradaux cells as a function of auxin (Paradaux cells; in the presence of AP1903): increased monotonically | Survival of Paradaux cells as a function of auxin (Paradaux cells; in the presence of blasticidin): decreased
